*1 amine or outer side, *2 acyl side, *3 side chain or, on linkers, in order; H or OH if unused. Where a SMILES comes first, the peptide text is derived from it. [ ]: non-standard residue; d: D form. The star is where a group is joined. X1 = O=C(NCCN(CC(=O)[*:2])[*:1])OCc1ccccc1; 1Nal = N[C@@H](Cc1cccc2ccccc12)C(=O)O; Gly(N-2-aminoethyl) = NCCNCC(=O)O; Cbz = O=C(OCc1ccccc1)*
Assays:
[1] = target: T1, fibrinogen receptor, glycoprotein IIb/IIIa (Homo sapiens, UniProt P05106+P08514); assay: Inhibition of fibrinogen binding to immobilized glycoprotein IIb/IIIa (ELISA); details: concentration required to inhibit binding of fibrinogen to the immobilized receptor from human blood platelets by 50%
T1 construct: from tissue
T1 sequence (P08514 32-887 limits assumed): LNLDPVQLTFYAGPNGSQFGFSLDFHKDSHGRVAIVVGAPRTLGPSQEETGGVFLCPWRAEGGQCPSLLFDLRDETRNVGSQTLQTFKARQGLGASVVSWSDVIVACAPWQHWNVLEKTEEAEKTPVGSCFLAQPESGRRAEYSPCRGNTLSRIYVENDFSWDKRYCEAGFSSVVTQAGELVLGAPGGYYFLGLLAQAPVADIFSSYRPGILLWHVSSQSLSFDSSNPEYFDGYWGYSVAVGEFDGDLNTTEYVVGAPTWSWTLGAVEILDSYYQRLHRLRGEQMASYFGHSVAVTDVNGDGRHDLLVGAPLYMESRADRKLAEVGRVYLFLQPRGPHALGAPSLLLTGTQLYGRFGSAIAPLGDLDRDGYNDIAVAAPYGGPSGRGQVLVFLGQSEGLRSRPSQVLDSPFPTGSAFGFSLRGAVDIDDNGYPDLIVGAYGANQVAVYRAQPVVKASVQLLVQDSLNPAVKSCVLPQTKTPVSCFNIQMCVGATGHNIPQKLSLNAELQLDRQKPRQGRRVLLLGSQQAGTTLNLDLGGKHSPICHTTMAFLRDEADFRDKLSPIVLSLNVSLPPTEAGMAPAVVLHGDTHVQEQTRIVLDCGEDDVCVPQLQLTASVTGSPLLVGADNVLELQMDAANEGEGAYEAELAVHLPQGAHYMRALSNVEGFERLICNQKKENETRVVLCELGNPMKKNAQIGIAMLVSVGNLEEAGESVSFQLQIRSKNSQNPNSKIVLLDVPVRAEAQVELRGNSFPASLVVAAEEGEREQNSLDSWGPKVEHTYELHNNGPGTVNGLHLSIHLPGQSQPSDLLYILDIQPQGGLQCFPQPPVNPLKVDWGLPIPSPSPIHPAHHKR
T1 sequence (P08514 891-1039 partner limits assumed): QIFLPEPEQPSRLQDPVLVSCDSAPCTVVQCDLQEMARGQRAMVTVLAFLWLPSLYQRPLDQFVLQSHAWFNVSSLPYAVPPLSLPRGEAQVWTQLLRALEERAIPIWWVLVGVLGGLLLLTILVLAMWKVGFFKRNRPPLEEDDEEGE
T1 sequence (P05106 27-788): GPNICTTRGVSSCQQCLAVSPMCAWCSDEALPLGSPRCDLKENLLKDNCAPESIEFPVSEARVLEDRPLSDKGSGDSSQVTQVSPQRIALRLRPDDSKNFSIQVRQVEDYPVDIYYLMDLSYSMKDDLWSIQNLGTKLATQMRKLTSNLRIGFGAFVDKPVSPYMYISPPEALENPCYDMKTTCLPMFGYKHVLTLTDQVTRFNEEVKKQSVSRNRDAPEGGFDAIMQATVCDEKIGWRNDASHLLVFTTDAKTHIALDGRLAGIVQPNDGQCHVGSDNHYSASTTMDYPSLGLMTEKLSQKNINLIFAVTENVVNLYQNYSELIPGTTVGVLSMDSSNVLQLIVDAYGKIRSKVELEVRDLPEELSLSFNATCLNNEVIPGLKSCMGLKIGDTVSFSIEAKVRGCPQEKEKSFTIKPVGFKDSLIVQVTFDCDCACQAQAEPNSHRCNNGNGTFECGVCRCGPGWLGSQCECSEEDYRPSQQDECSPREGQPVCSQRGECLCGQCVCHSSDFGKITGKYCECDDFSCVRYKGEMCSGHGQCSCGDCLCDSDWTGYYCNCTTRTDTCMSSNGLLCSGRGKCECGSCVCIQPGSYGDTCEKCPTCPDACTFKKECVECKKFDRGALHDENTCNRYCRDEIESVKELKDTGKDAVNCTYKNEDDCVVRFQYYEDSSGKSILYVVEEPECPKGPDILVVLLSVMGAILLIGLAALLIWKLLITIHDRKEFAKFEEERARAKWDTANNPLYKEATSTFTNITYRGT
Protocol: The glycoprotein IIb/IIIa is obtained-from Triton X-100 extracts of human blood platelets and purified by lectin affinity chromatography (Analytical Biochemistry 151, 1985, 169-177) and chromatography on an Arg-Gly-Asp-Ser affinity column (Science 231, 1986, 1559-62). The thus-obtained receptor protein is bonded to microtitre plates. The specific binding of fibrinogen to the immobilized receptor is determined with the aid of an ELISA system ("enzyme-linked immunosorbent assay"). The IC50 values hereinafter correspond to that concentration of the test substance which is required to inhibit the binding of fibrinogen to the immobilized receptor by 50%: […]

mouse = assay: Acute toxicity, intravenous, mouse; format: in vivo; details: intravenously in the mouse
Protocol: The compounds of formula I have a low toxicity. Thus the product of Example 2 has a LD50 of 600 mg/kg intravenously in the mouse.

Row | IC50 [1] [nM] | Structure (SMILES) | LD50 (mouse) [mg/kg]
1 | 120 | CC[C@H](C)[C@H](NC(=O)[C@H](CC(=O)O)NC(=O)CNC(=O)[C@H](CCCNC(=N)N)NC(=O)CNCCN)C(=O)O [Example 11, Aeg Arg- Gly-Asp-Ile-OH] (H-[Gly(N-2-aminoethyl)]RGDI-OH) | –
2 | 1.9 | CC(C)[C@H](NC(=O)[C@H](CC(=O)O)NC(=O)CNC(=O)Cc1ccc(C(=N)N)cc1)C(=O)O [Example 27, (p-amidinophenyl)acetyl-Gly-Asp-Val-OH] | –
3 | 54 | CC(C)[C@H](NC(=O)[C@H](CC(=O)O)NC(=O)CNC(=O)[C@H](CCCNC1=NC2(O)CCCCC2(O)N1)NC(=O)OC(C)(C)C)C(=O)O (stereo partly drawn) [Example 14, [N2-Boc-N5-(3a,4,5,6,7,7a-hexahydro-3a,7a-dihydroxy-1H-benzimidazol-2-yl)- L-ornithyl]-Gly-Asp-Val-OH] | –
4 | 38 | N=C(N)NCCC[C@H](NC(=O)CNCCN)C(=O)NCC(=O)N[C@@H](CC(=O)O)C(=O)N[C@@H](Cc1cccc2ccccc12)C(=O)O [Example 10, N-Aeg-Arg-Gly-Asp-Nal(1)-OH] (H-[Gly(N-2-aminoethyl)]RGD[1Nal]-OH) | –
5 | 22 | CC(C)[C@H](NC(=O)[C@H](CC(=O)O)NC(=O)CNC(=O)[C@H](N)Cc1ccc(C(=N)N)cc1)C(=O)O [Example 20, [3-(p-amidinophenyl)-D-alanyl]-Gly-Asp-Val-OH] | –
6 | 35 | CC(C)[C@H](NC(=O)[C@H](CC(=O)O)NC(=O)CNC(=O)CCc1ccc(C(=N)N)cc1)C(=O)O [Example 24, (p-amidinohydrocinnamoyl)-Gly-Asp-Val-OH] | –
7 | 110 | N=C(N)NCCC[C@H](NC(=O)CNCCN)C(=O)NCC(=O)N[C@@H](CC(=O)O)C(=O)N[C@@H](CO)C(=O)O [Example 8, Aeg-Arg-Gly-Asp-Ser-OH] | –
8 | 5 | CC(C)[C@H](NC(=O)[C@H](CC(=O)O)NC(=O)CNC(=O)COc1ccc(C(=N)N)cc1)C(=O)O [Example 26, (p-amidinophenoxy)acetyl-Gly-Asp Val-OH] | –
9 | 210 | CC(C)[C@H](NC(=O)[C@H](CC(=O)O)NC(=O)CNC(=O)CCc1ccc(CN)cc1)C(=O)O [Example 23, (p-aminomethylhydrocinnamoyl)-Gly-Asp-Val-OH] | –
10 | 22 | N=C(N)c1ccc(CC(N)C(=O)NCC(=O)N[C@@H](CC(=O)O)C(=O)N[C@@H](Cc2cccc3ccccc23)C(=O)O)cc1 (mixture of isomers) [Example 16, [3-(p-amidinophenyl)-DL-alanyl]-Gly-Asp-Nal(1)-OH] | –
11 | 150 | CC(C)[C@H](NC(=O)[C@H](CC(=O)O)NC(=O)CNC(=O)[C@H](CCCNC(=N)N)NC(=O)CN(CCNC(=O)OCc1ccccc1)C(=O)OCc1ccccc1)C(=O)O [Example 6, Z-Aeg(Z)-Arg-Gly-Asp-Val-OH] (Cbz-[X1]RGDV-OH) | –
12 | 110 | [N-]=[N+]=Nc1ccccc1C(=O)N[C@@H](CCCNC(=N)N)C(=O)NCC(=O)N[C@@H](CC(=O)O)C(=O)Nc1ccccc1C(=O)O [Example 13, N-[(o-azidobenzoyl)-Arg-Gly-Asp]-anthranilic acid] | –
13 | 23 | CC(C)[C@H](NC(=O)[C@H](CC(=O)O)NC(=O)CNC(=O)[C@@H](N)Cc1ccc(C(=N)N)cc1)C(=O)O [Example 25, [3-(p-amidinophenyl)-L-alanyl]-Gly-Asp-Val-OH] | –
14 | 11 | N=C(N)c1ccc(CCC(=O)NCC(=O)N[C@@H](CC(=O)O)C(=O)N[C@@H](Cc2cccc3ccccc23)C(=O)O)cc1 [Example 19, (p-amidinohydrocinnamoyl)-Gly Asp-Nal(1)-OH] | –
15 | 16 | CC(C)[C@H](NC(=O)[C@H](CC(=O)O)NC(=O)CNC(=O)C(Cc1ccc(C(=N)N)cc1)NC(=O)OC(C)(C)C)C(=O)O (mixture of isomers) [Example 17, [N-Boc-3-(p-amidinophenyl)-DL-alanyl]-Gly-Asp-Val-OH] | –
16 | 90 | CC(C)[C@H](NC(=O)[C@H](CC(=O)O)NC(=O)CNC(=O)[C@H](CCCNC(=N)N)NC(=O)CNCCN)C(=O)O [Example 7, Aeg-Arg-Gly-Asp-Val-OH] (H-[Gly(N-2-aminoethyl)]RGDV-OH) | –
17 | 110 | CC(=N)NCCCC[C@H](NC(=O)OC(C)(C)C)C(=O)NCC(=O)N[C@@H](CC(=O)O)C(=O)N[C@H](C(=O)O)C(C)C [Example 12, [N2-Boc-N6 -(1-iminoethyl)-L-lysyl]Gly-Asp-Val- -OH] | –
18 | 80 | CC(C)[C@H](NC(=O)[C@H](CC(=O)O)NC(=O)CNC(=O)C(Cc1ccc(NC(=N)N)cc1)NC(=O)OC(C)(C)C)C(=O)O (mixture of isomers) [Example 15, [N-Boc-3-(p-guanidinophenyl)-DL-alanyl]-Gly-Asp-Val-OH] | –

Row | Structure (SMILES) | IC50 [1] [nM] | LD50 (mouse) [mg/kg]
19 | CC(C)[C@H](NC(=O)[C@H](CC(=O)O)NC(=O)CNC(=O)C(N)Cc1ccc(C(=N)N)cc1)C(=O)O (mixture of isomers) [Example 2, [3-(p-amidinophenyl)-DL-alanyl]-Gly-Asp-Val-OH] | 16 | 600
